Key:
HepG2 [1] = test: Induction of apoptosis in human HepG2 cells assessed as necrotic cells at 5 uM incubated for 24 hrs by Annexin-V/PI staining based flow cytometry (Rvb=0.85%); type: functional
HepG2 [2] = test: Induction of cell cycle arrest in human HepG2 cells assessed as accumulation at S phase at 0.625 uM incubated for 24 hrs by flow cytometry (Rvb= 20.1%); type: functional
HepG2 [3] = test: Induction of cell cycle arrest in human HepG2 cells assessed as accumulation at G0/G1 phase at 2.5 uM incubated for 24 hrs by flow cytometry (Rvb= 46.5%); type: functional
HepG2 [4] = test: Induction of apoptosis in human HepG2 cells assessed as early apoptotic cells at 0.625 uM incubated for 24 hrs by Annexin-V/PI staining based flow cytometry (Rvb=4.48%); type: functional
HepG2 [5] = test: Inhibition of colony formation in human HepG2 cells at 0.625 to 10 uM incubated for 8 days with drug replacement every 2 days by crystal violet staining based imaging analysis; type: functional, cell-based; details: dose 0.625-10 µM, time 8.0 day
HepG2 [6] = test: Induction of apoptosis in human HepG2 cells assessed as late apoptotic cells at 5 uM incubated for 24 hrs by Annexin-V/PI staining based flow cytometry (Rvb=0.66%); type: functional
HepG2 [7] = test: Induction of apoptosis in human HepG2 cells assessed as increase in cleaved caspase-3 level at 0.625 to 2.5 uM incubated for 24 hrs by Western blot analysis; type: functional, cell-based; details: dose 0.625-2.5 µM
HepG2 [8] = test: Induction of apoptosis in human HepG2 cells assessed as late apoptotic cells at 1.25 uM incubated for 24 hrs by Annexin-V/PI staining based flow cytometry (Rvb=0.66%); type: functional
[9] = Cytotoxicity against human GES1 cells assessed as reduction in cell viability incubated for 72 hrs by MTT assay; type: toxicity, cell-based
HepG2 [10] = test: Induction of apoptosis in human HepG2 cells assessed as early apoptotic cells at 5 uM incubated for 24 hrs by Annexin-V/PI staining based flow cytometry (Rvb=4.48%); type: functional
HepG2 [11] = test: Induction of apoptosis in human HepG2 cells assessed as late apoptotic cells at 2.5 uM incubated for 24 hrs by Annexin-V/PI staining based flow cytometry (Rvb=0.66%); type: functional

CC(=O)Nc1ccc(Oc2ccc(F)cc2F)c(-c2ccc3[nH]c(=O)c(C)nc3c2)c1
Activity (HepG2 [1]): 0.84% | Activity (HepG2 [2]): 20% | Activity (HepG2 [3]): 53.3% | Activity (HepG2 [4]): 5.3% | inhibition (HepG2 [5]): Dose-Dependent Effect | Activity (HepG2 [6]): 1.26% | Activity (HepG2 [7]): Dose-Dependent Effect | Activity (HepG2 [8]): 1.37% | IC50 at 72 h [9]: 57.2 µM | Activity (HepG2 [10]): 10.4% | Activity (HepG2 [11]): 1.39%
